Some test systems named below: A549; EKVX; HCT-15; HL-60; HT-29; IGROV-1; KM12; OVCAR-3; OVCAR-4; RPMI-8226; SF-295; TK-10; U-251; UACC-62; NCI-H226; SK-MEL-28; SR; NCI-H522.
Common to all, as to experiment: NCI anticancer screen, dose series, 48 h

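Step 1: Grow cells in 96-well plates. Step 2: Expose to compound for 48 hours at 5 concentrations. Step 3: Interpolate endpoints linearly; if unreached, use highest concentration. GI50 is the concentration that inhibits growth by half.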 The source made the active and inactive calls. No stated cut-off is given here; in the data, active = GI50 up to about 1.1 µM and inactive = higher. Some results are limits rather than exact numbers.

For the compound `O=S(=O)(O)C(F)(F)C(F)(F)C(F)(F)C(F)(F)F`, the GI50 with A549 was > 100 µM (inactive); with EKVX, > 100 µM (inactive); in the assay on HCT-15, more than 100 µM; in the assay with HL-60 it was > 100 µM (inactive); in the assay with HT-29, > 100 µM (inactive); in the assay with IGROV-1 it was > 100 µM (inactive). Also, the GI50 in the assay with KM12, in the assay with OVCAR-3, in the assay with OVCAR-4, with RPMI-8226, in the assay with SF-295 and with TK-10 was > 100 µM (inactive) in each case. For the same compound, the GI50 in the assay with U-251 and in the assay on UACC-62 was > 100 µM (inactive) throughout.

Regarding `Cc1cc2c(C)n(Cc3ccccc3Cl)nc2c(C(=O)O)c1C`, the GI50 is > 100 µM (inactive) with A549; > 100 µM (inactive) in the assay with EKVX; more than 100 µM in the assay with HCT-15; > 100 µM (inactive) with HL-60; > 100 µM (inactive) in the assay with HT-29; > 100 µM (inactive) in the assay with IGROV-1. Moreover, the GI50 with NCI-H226, in the assay with OVCAR-3, in the assay on RPMI-8226, in the assay on SF-295, in the assay with SK-MEL-28 and in the assay with SR was > 100 µM (inactive) each time. In addition, the GI50 in the assay on TK-10, with U-251 and in the assay with UACC-62 was > 100 µM (inactive) each time.

For the compound `O=C(NC(=O)c1cn(CCN2CCN(C(=O)NCCCCCCNC(=O)N3CCN(CCn4cc(C(=O)NC(=O)OCc5ccccc5)c(=O)[nH]c4=O)CC3)CC2)c(=O)[nH]c1=O)OCc1ccccc1`, the GI50 was > 100 µM (inactive) in the assay on A549; > 100 µM (inactive) with EKVX; more than 100 µM in the assay on HCT-15; > 100 µM (inactive) in the assay on HL-60; > 100 µM (inactive) in the assay with HT-29; > 100 µM (inactive) in the assay on IGROV-1. Besides, the GI50 in the assay on OVCAR-3, with OVCAR-4, with RPMI-8226, in the assay with SF-295, in the assay with SK-MEL-28 and with TK-10 was > 100 µM (inactive) throughout. Further, the GI50 with U-251 and in the assay on UACC-62 was > 100 µM (inactive) in each case.

On to `CCOC(=O)C1=C(OC(OCC)C(CC)[Se]c2ccccc2)CCCC1` (stereo unspecified), for which the GI50 was 45.3 µM (inactive) with A549; 34.4 µM (inactive) with EKVX; 16.9 µM in the assay on HCT-15; 15.9 µM (inactive) in the assay on HL-60; 24.7 µM (inactive) in the assay with HT-29; 26.8 µM (inactive) in the assay on IGROV-1. Moreover, the GI50 in the assay with KM12 was > 100 µM (inactive); in the assay on NCI-H226, 21.8 µM (inactive); in the assay on NCI-H522, 14.6 µM (inactive); with OVCAR-3 it was 21.1 µM (inactive); in the assay on OVCAR-4, 14.5 µM (inactive); with RPMI-8226, 13 µM (inactive). Also, the GI50 is 19.1 µM (inactive) in the assay with SF-295; 40.5 µM (inactive) in the assay with SK-MEL-28; > 100 µM (inactive) with TK-10; 12.6 µM (inactive) with U-251; 19.8 µM (inactive) in the assay with UACC-62.

Regarding `C1=CC=C2NCCC/N=C3/C=CC=CC=C3NCCC/N=C\2C=C1`, the GI50 in the assay on A549 is > 100 µM (inactive); in the assay with EKVX, > 100 µM (inactive); in the assay with HCT-15, more than 100 µM; in the assay with HL-60, > 100 µM (inactive); in the assay on HT-29 it was > 100 µM (inactive); with IGROV-1 it was > 100 µM (inactive). For the same compound, the GI50 with KM12, in the assay on NCI-H226, in the assay on OVCAR-3, with OVCAR-4, in the assay on RPMI-8226 and in the assay with SF-295 was > 100 µM (inactive) in each case. For the same compound, the GI50 in the assay on SK-MEL-28, in the assay with TK-10, with U-251 and with UACC-62 was > 100 µM (inactive) throughout.

As to `Cc1cc2c(=O)cc(-c3ccc(Cl)cc3Cl)oc2c(C(=O)O)c1C`, the GI50 in the assay with A549 was > 100 µM (inactive); with EKVX it was > 100 µM (inactive); in the assay with HCT-15, more than 100 µM; in the assay with HT-29 it was > 100 µM (inactive); with IGROV-1, > 100 µM (inactive); with KM12, > 100 µM (inactive). Moreover, the GI50 with NCI-H226 is > 100 µM (inactive); in the assay on NCI-H522 it was 25.3 µM (inactive); in the assay on OVCAR-3, > 100 µM (inactive); with OVCAR-4 it was > 100 µM (inactive); in the assay on RPMI-8226 it was > 100 µM (inactive); in the assay on SF-295, > 100 µM (inactive). The GI50 in the assay on SK-MEL-28, in the assay with TK-10, with U-251 and in the assay on UACC-62 was > 100 µM (inactive) each time.

With `O=C1CC2Sc3ccccc3N=C2N1c1ccc(Cl)cc1Cl` (stereo unspecified), the GI50 is 83.4 µM (inactive) in the assay on A549; > 100 µM (inactive) in the assay on EKVX; 18.8 µM (inactive) with HL-60; 92 µM (inactive) in the assay on HT-29; 78.2 µM (inactive) in the assay with IGROV-1; 49.8 µM (inactive) with KM12. The GI50 in the assay with NCI-H226 is > 100 µM (inactive); with OVCAR-3, > 100 µM (inactive); in the assay on OVCAR-4, > 100 µM (inactive); in the assay on RPMI-8226, 49.2 µM (inactive); in the assay with SF-295 it was 79.8 µM (inactive); with SK-MEL-28, 93.3 µM (inactive). Moreover, the GI50 in the assay on TK-10 was > 100 µM (inactive); in the assay with U-251, 32.2 µM (inactive); in the assay on UACC-62 it was 48.3 µM (inactive).

As for `C=C(C=O)CCCC(C)[C@@H]1CCC23CC12CCC1[C@@]2(C)CCC(OC(C)=O)C(C)(C)C2CC(OC2OC(COC(C)=O)C(O)C(O)C2O)[C@]13C` (stereo partly specified), the GI50 in the assay on A549 is 6.34 µM (inactive); in the assay on EKVX, 7.33 µM (inactive); in the assay with HCT-15, 1.56 µM; with HL-60 it was 0.643 µM (active); in the assay on HT-29, 5.43 µM (inactive); in the assay with IGROV-1, 2.15 µM (inactive). For the same compound, the GI50 with KM12 was 3.39 µM (inactive); in the assay with NCI-H226 it was 6.43 µM (inactive); with NCI-H522 it was 0.843 µM (active); in the assay on OVCAR-3 it was 2.72 µM (inactive); with OVCAR-4, 5.14 µM (inactive); in the assay on RPMI-8226, 0.859 µM (active). Besides, the GI50 was 5.83 µM (inactive) in the assay with SF-295; 0.845 µM (active) in the assay with SK-MEL-28; 6.58 µM (inactive) in the assay with TK-10; 2.72 µM (inactive) in the assay with U-251; 1.08 µM (active) in the assay on UACC-62.

Turning to `O=C(O)CCCNS(=O)(=O)c1ccccc1`, the GI50 in the assay on A549 was > 100 µM (inactive); in the assay on EKVX, > 100 µM (inactive); with HCT-15 it was more than 100 µM; in the assay on HL-60, > 100 µM (inactive); in the assay with HT-29 it was > 100 µM (inactive); in the assay on IGROV-1, > 100 µM (inactive). Also, the GI50 in the assay on KM12, in the assay on NCI-H226, with NCI-H522, in the assay with OVCAR-3, in the assay with OVCAR-4 and with RPMI-8226 was > 100 µM (inactive) throughout. Moreover, the GI50 in the assay with SF-295, with SK-MEL-28, in the assay on TK-10, in the assay on U-251 and in the assay with UACC-62 was > 100 µM (inactive) throughout.

Source of the values: ChEMBL document CHEMBL1201862, “PubChem BioAssay data set” (2004).
